The values that follow come from publication PMC10053857, “Analysis of NSAIDs in Rat Plasma Using 3D-Printed Sorbents by LC-MS/MS: An Approach to Pre-Clinical Pharmacokinetic Studies” (Pharmaceutics, 2023).

The term AUC denotes the area under the concentration-time curve, a measure of exposure. Read a low AUC as less exposure. For orientation: AUC(0-t) means the area under the concentration-time curve up to a stated or last time point. A high value points to high exposure. As usually defined, the Cmax is the peak of the concentration-time curve. For orientation: Tmax means the time from dosing to the highest level. As a reminder, the half-life is how long it takes for the measured level to halve.

Structures are written as SMILES.

Data set [1] can be described thus: Stability of analytes in rat plasma (bench-top, autosampler/post-operative, freeze-thaw). The conditions noted are these: for Mean Estimated Concentration ± SD, autosampler stability: 15 °C for 24 h; for Mean Estimated Concentration ± SD, bench-top stability: 8 h at ambient temperature; for Mean Estimated Concentration ± SD, three freeze-thaw cycles: each cycle at −20 °C; for mean percentage changes in plasma during bench-top stability, post-operative, and three freeze-thaw cycles: low and high QC. In kind it is in vitro ADME. As to the method: To assess the specificity and selectivity of the validated LC-MS/MS method and to determine the exclusion of endogenous interferences at the retention time of the compound and I.S., a total of six plasma samples and two plasma samples containing 50 ng/mL I.S. solution were subjected to extraction using the 3D sorbent. A calibration curve for rat plasma was constructed for standards over a range of 1–800 ng/mL for acetaminophen and 1–500 ng/mL for indomethacin. The peak area ratio of the drug and I.S. was plotted with a weighing factor of 1/X to assess acetaminophen linearity and linear regression for indomethacin. The minimum detectable concentration of analytes, also known as the lower limit of quantification (LLOQ), was established as the concentration at which the coefficient of variation (CV) is less than 20%, and the accuracy is within the range of 80–120%. Four different concentrations of quality control samples were used for six replicates to determine the intra- and inter-day precision and accuracy. As per the FDA guidelines, CV was limited to <20% for the LLOQ and ≤15% for the LQC, MQC, and HQC. Accuracy was calculated as the percentage difference between the observed and nominal concentrations of the QC samples. A comparison of the peak area ratios of analytes to I.S. of extracted samples (n = 6) and drug solutions of the same concentration was performed to evaluate the extraction recovery of molecules from rat plasma. LQC, MQC, and HQC concentrations were investigated for extraction recovery. The matrix effect of the LQC, MQC, and HQC samples was determined by deproteinizing the blank plasma samples and adding analytes and I.S. to the deproteinized sample. Furthermore, the same analyte concentrations were analyzed in aqueous solutions. The matrix factor was calculated using the following equation: (peak area of post-extracted standard analytes/peak area of the analyte in aqueous solution) × 100. To test the dilution integrity, the range of the standard compound concentrations was increased beyond the calibration range. Plasma samples with 1200 ng/mL of acetaminophen and indomethacin were individually prepared and then diluted two-fold and four-fold using blank plasma. The dilution integrity of concentrations was evaluated with %CV <15%. A series of injections was performed to assess the carry-over effect of acetaminophen and indomethacin. The injections included a blank solvent sample, a higher concentration standard sample, a blank plasma sample extracted with the 3D sorbent, and a higher concentration sample extracted with 3D sorbent from plasma. The thresholds for carry-over effects were 20% of the mean extracted LLOQ signal and 5% of the I.S. response. The stability of acetaminophen and indomethacin in rat plasma was evaluated at six low- and high-quality control sample replicates. Benchtop and post-operative stability studies were conducted at 8 h at ambient temperature and 15 °C for 24 h, respectively. Quality control samples were stored at −20 °C and thawed at room temperature every 24 h for freeze-thaw stability, and after three freeze-thaw cycles, samples were analyzed.

Data set [2] can be described thus: in vivo. The settings on record: male, Sprague-Dawley, rat, po. On the set-up: species or system male Sprague-Dawley rats. The protocol: A 3D sorbent was used as the extraction device to evaluate the in vivo pharmacokinetics of acetaminophen and indomethacin. The Institutional Animal Ethics Committee of the National Institute of Pharmaceutical Education and Research, Guwahati (NIPER/CAF/IAEC/2022/60) approved all the animal experiments. For the pharmacokinetic study, the animal house was kept at a temperature of 25 ± 1 °C with a relative humidity of 50 ± 15%. The rats were maintained on a 12-h dark/light cycle and had free access to food and water. Prior to the study, the animals fasted for 12 h. To minimize variations in drug concentration in the plasma, 18 male Sprague-Dawley rats of similar weight and age were used. Rats were administered 50 mg/kg acetaminophen and 10 mg/kg indomethacin in saline through oral gavage to a different group. Blood samples were collected and thoroughly vortexed at 0.25, 0.50, 1, 2, 4, 6, and 8 h before being centrifuged at 5000 rpm for 20 min at 4 °C. The resulting plasma samples were separated and subjected to analysis using LC-MS/MS. The 3D extraction prototype was used to extract analytes from the plasma by introducing 90 µL of plasma spiked with 10 µL of an internal standard (I.S., 50 ng/mL), making up to 1 mL with deionized water, and adding the 3D extraction device for the adsorption process. After 15 min of adsorption in the vortexes, the remaining residue was collected for further analysis, the prototype was transferred into a fresh microcentrifuge tube, and desorption solvents (water and acetonitrile) were added in a 1:1 (v/v) ratio and vortexed for 15 min. Samples were collected after successful desorption and analyzed using LC-MS/MS.
Male Sprague-Dawley rats (n = 6) were used for pharmacokinetic studies, and oral doses of indomethacin and acetaminophen were separately administered to overnight-fasted rats. Blood was collected through retro-orbital puncture at different time points, and plasma was separated and stored for further analysis. Plasma containing indomethacin and acetaminophen was added to the microcentrifuge tube containing the activated extraction device for adsorption and vortexed for 15 min with 1 mL of water, after which the analytes present in the plasma were bound to the surface of the cartridge. After adsorption for 15 min, the remaining solvent was transferred into a fresh tube and centrifuged to precipitate the matrix. The resulting supernatant was collected and introduced into an LC-MS/MS system to quantify the unbound concentration. The sorbent was transferred into a fresh microcentrifuge tube for desorption using acetonitrile and water and vortexed for 15 min to complete the process. The solution was collected, followed by centrifugation, and the supernatant was filtered through a 0.2µm filter. The resulting filtrate was then subjected to LC-MS/MS analysis to measure the indomethacin and acetaminophen concentration in the plasma.
An investigation into the pharmacokinetics of indomethacin and acetaminophen in rats was conducted through oral administration, employing LC-ESI-MS/MS analysis. Figure 9 illustrates the resulting pharmacokinetic profile, while Table 4 presents the computed pharmacokinetic parameters of both substances, obtained via PK Analysis Add-ins in the Microsoft Excel Program. […] The mean area under the curve (AUC0–t) for indomethacin is 0.93 µg h/mL and for acetaminophen is 32.33 µg h/mL. […] Based on the obtained results, the developed 3D-printed sorbent efficiently extracted analytes from plasma, reduced sample preparation time, and minimized the use of organic solvents during sample preparation.

[3] abbreviates: indomethacin, HQC, theoretical 400 ng/mL.
Setting [4] is: indomethacin, LQC, theoretical 3 ng/mL.
Setting [5] is: acetaminophen, HQC, theoretical 600 ng/mL.
Setting [6] is: acetaminophen, LQC, theoretical 3 ng/mL.

For the compound `COc1ccc2c(c1)c(CC(=O)O)c(C)n2C(=O)c1ccc(Cl)cc1` [Indomethacin], in data set [1] (setting [3]), the “Mean Estimated Concentration ± SD, autosampler stability” value is given as 391.82 ± 6.72 ng/mL; the “Mean Estimated Concentration ± SD, bench-top stability” value is recorded as 401.61 ± 7.80 ng/mL; the “Mean Estimated Concentration ± SD, three freeze-thaw cycles” value is 395.72 ± 13.06 ng/mL. In data set [1] (setting [4]), the “Mean Estimated Concentration ± SD, autosampler stability” value was 2.99 ± 0.04 ng/mL; the “Mean Estimated Concentration ± SD, bench-top stability” value was 2.98 ± 0.11 ng/mL; the “Mean Estimated Concentration ± SD, three freeze-thaw cycles” value is given as 2.96 ± 0.12 ng/mL. Moreover, the “mean percentage changes in plasma during bench-top stability, post-operative, and three freeze-thaw cycles” value in data set [1] is given as “within acceptable limits”. Moreover, in data set [2] (10 mg/kg), the area under the curve (AUC) was 970 ± 200 ng·h/mL, the AUC(0-t) turned out to be 930 ± 170 ng·h/mL, the Cmax turned out to be 330 ± 40 ng/mL and the time of peak concentration (Tmax) lay within 30 to 60 min. In data set [2] (10 mg/kg), the half-life is 107 ± 26.4 min and the k el is 0.000114 s⁻¹.
For the compound `CC(=O)Nc1ccc(O)cc1` [Acetaminophen], in data set [1] (setting [5]), the “Mean Estimated Concentration ± SD, autosampler stability” value was 596.26 ± 8.41 ng/mL; the “Mean Estimated Concentration ± SD, bench-top stability” value is 592.92 ± 10.80 ng/mL; the “Mean Estimated Concentration ± SD, three freeze-thaw cycles” value was 591.92 ± 6.66 ng/mL. In addition, in data set [1] (setting [6]), the “Mean Estimated Concentration ± SD, autosampler stability” value is recorded as 2.92 ± 0.15 ng/mL; the “Mean Estimated Concentration ± SD, bench-top stability” value was 2.91 ± 0.16 ng/mL; the “Mean Estimated Concentration ± SD, three freeze-thaw cycles” value was 3.01 ± 0.09 ng/mL. In data set [1], the “mean percentage changes in plasma during bench-top stability, post-operative, and three freeze-thaw cycles” value was “within acceptable limits”. In data set [2] (50 mg/kg), the AUC is 32400 ± 10800 ng·h/mL, the AUC(0-t) stood at 32300 ± 10800 ng·h/mL, the Cmax is 27300 ± 9900 ng/mL and the Tmax lay within 30 to 60 min. In data set [2] (50 mg/kg), this compound gave a half-life of 48.6 ± 6 min and a k el of 0.000236 s⁻¹.
